In patent publication US8748368B2, “Methods for preserving organs and tissues” (DYAX Corp., priority 2002, dated 2014):
Positions of bridges follow the written chain, without caps; N, C: chain ends. No end group written: not given here.

Columns and labels:
Assay in all cases: Affinity (Ki,app) for protease
Type in all cases: biochemical
human urine kallikrein = target: T1, human urine kallikrein (Homo sapiens, UniProt P06870)
T1 construct: from tissue; host or cells: urine (from the name only)

[1] = target: T2, porcine pancreatic kallikrein (Sus scrofa, UniProt P00752)
T2 construct: from tissue; host or cells: pancreas (from the name only)

human C1r, activated = target: T3, human C1r, activated (Homo sapiens, UniProt P00736)
T3 sequence (P00736 18-463 limits assumed): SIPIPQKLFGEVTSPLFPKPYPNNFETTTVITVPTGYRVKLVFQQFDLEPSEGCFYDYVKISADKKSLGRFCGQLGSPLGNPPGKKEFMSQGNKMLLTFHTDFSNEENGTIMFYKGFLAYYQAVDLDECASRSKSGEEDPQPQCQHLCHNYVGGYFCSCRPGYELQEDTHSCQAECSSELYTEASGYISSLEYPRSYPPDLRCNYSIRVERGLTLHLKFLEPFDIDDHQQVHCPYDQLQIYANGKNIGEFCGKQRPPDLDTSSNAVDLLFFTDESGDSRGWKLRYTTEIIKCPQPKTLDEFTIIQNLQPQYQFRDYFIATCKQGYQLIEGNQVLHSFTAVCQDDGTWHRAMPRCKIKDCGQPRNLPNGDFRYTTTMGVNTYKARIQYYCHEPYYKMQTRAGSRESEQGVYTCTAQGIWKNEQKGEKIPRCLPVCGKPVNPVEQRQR
T3 sequence (P00736 464-705 limits assumed): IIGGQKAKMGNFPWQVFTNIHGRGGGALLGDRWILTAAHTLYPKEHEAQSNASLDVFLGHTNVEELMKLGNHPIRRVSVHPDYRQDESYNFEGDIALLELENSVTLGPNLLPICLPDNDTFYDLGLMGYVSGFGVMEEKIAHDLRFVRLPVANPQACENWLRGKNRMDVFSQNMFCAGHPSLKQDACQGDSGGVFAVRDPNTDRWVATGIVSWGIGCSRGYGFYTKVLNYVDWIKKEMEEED

human C1s, activated = target: T4, human C1s, activated (Homo sapiens, UniProt P09871)
T4 sequence (P09871 16-437 limits assumed): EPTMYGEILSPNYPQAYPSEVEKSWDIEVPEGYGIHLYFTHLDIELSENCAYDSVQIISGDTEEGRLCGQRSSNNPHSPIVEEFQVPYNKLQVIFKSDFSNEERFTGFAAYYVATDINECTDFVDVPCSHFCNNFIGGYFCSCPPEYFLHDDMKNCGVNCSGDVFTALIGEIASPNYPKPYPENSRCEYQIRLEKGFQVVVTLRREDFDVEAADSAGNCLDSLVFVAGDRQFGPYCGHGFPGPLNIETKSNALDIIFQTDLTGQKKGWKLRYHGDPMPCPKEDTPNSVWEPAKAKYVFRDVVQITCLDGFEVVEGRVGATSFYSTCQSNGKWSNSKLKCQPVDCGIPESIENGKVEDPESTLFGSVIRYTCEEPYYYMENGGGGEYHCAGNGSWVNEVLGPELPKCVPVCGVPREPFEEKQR
T4 sequence (P09871 438-688 limits assumed): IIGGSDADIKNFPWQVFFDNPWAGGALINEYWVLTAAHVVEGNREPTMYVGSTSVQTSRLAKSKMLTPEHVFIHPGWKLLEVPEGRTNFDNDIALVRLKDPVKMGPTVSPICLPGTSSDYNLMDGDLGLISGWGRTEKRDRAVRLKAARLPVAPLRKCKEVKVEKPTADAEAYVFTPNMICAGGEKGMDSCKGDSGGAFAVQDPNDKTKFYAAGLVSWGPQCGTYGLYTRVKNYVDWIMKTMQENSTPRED

human plasma factor XIa = target: T5, human plasma factor XIa (Homo sapiens, UniProt P03951)
T5 construct: human plasma factor XIa; from tissue; host or cells: plasma (from the name only)

human plasmin = target: T6, human plasmin (Homo sapiens, UniProt P00747)
T6 construct: human plasmin

[2] = target: T7, human neutrophil elastase (Homo sapiens, UniProt P08246)
T7 sequence (P08246 30-267): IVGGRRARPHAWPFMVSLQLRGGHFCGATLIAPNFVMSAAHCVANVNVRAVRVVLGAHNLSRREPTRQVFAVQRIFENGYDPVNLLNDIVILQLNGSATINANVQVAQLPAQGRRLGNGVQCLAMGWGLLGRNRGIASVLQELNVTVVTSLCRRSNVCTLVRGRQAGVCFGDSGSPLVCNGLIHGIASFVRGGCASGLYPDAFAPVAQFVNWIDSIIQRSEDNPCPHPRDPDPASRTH

human plasma thrombin = target: T8, human plasma thrombin (Homo sapiens, UniProt P00734)
T8 construct: human plasma thrombin; from tissue; host or cells: plasma (from the name only)

human plasma factor XIIa = target: human plasma factor XIIa
Sequence of human plasma factor XIIa (P00748 373-615 limits assumed): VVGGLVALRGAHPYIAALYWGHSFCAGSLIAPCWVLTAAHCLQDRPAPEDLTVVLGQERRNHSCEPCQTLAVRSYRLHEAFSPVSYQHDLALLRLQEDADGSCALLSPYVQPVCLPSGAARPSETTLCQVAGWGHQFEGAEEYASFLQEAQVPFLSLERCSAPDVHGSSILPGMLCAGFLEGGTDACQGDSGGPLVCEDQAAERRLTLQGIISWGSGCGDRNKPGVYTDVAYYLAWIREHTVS

T6 sequence (P00747 97-580 limits assumed): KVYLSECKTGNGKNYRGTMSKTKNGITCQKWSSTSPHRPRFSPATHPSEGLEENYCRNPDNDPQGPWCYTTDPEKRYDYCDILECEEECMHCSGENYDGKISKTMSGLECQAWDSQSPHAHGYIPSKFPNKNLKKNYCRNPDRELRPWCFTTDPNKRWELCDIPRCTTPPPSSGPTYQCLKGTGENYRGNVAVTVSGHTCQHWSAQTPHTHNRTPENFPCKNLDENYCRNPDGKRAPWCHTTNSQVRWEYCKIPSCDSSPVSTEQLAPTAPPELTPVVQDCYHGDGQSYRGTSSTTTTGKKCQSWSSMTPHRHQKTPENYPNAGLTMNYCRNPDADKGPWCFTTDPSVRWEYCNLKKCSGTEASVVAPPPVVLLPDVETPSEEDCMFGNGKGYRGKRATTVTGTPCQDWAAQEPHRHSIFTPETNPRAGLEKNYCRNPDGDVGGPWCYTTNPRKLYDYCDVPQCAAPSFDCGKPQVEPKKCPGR
T6 sequence (P00747 581-810 limits assumed): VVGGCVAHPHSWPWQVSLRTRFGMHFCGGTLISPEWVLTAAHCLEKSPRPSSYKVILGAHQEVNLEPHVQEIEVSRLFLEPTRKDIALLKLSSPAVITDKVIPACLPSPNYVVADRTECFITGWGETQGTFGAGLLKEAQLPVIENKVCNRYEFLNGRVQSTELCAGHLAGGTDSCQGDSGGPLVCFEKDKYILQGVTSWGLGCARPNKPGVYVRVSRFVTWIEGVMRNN
T1 sequence (P06870 25-262): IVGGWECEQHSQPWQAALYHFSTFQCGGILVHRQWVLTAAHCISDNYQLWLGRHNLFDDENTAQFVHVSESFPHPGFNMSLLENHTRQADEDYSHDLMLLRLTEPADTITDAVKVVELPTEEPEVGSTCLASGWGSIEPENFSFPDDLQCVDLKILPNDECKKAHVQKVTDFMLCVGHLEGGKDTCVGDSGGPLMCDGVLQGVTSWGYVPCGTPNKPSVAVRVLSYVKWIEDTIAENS
T5 sequence (P03951 19-387 limits assumed): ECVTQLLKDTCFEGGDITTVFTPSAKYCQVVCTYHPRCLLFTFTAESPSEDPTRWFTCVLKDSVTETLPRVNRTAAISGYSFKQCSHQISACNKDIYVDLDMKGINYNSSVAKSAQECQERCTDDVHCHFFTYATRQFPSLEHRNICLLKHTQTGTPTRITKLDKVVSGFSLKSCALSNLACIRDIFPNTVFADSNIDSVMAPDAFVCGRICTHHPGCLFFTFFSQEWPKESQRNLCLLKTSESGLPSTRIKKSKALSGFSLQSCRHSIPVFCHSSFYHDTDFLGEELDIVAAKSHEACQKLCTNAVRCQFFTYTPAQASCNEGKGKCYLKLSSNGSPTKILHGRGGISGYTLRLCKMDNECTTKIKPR
T5 sequence (P03951 388-625 limits assumed): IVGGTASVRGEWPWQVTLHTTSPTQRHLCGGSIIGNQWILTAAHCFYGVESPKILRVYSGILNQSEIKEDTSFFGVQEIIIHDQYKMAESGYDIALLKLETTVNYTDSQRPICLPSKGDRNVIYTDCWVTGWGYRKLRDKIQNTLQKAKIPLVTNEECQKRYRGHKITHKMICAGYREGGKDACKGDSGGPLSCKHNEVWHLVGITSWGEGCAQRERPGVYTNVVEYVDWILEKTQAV
T2 sequence (P00752 8-246): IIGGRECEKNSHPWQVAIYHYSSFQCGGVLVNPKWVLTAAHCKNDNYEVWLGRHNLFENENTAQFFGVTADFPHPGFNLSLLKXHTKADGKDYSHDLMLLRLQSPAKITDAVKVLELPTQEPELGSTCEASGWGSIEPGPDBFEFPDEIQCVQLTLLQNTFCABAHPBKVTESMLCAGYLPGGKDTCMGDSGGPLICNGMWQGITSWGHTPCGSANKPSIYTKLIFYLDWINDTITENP

| Substance | Ki (human urine kallikrein) [µM] | Ki [1] [µM] | Ki (human C1r, activated) [µM] | Ki (human C1s, activated) [µM] | Ki (human plasma factor XIa) [µM] | Ki (human plasmin) [µM] | Ki [2] [µM] | Ki (human plasma thrombin) [µM] | Ki (human plasma factor XIIa) [µM] |
| --- | --- | --- | --- | --- | --- | --- | --- | --- | --- |
| EAMHSFCAFKADDGPCRAAHPRWFFNIFTRQCEEFIYGGCEGNQNRFESLEECKKMCTRD (disulfide 7-57, 16-40, 32-53) [PEP-1] | > 100 | 27 | > 200 | > 20 | 0.01 | 0.14 | > 20 | > 20 |  |
| aprotinin [reference compound] |  |  |  | > 100 |  |  |  | > 100 | > 100 |
